Key:
[1] = Phase-transfer extraction of the hyperpolarized product into water: 13C signal enhancement and amount transferred; format: physicochemical
Procedure: After the field cycling application, the tube was quickly opened and 0.4 mL of degassed D2O were added; the tube was shaken vigorously for three seconds and then let stand for five seconds, during which phase separation occurred. The water solution was taken by a syringe and transferred into a tube for NMR acquisition.

Solubility in water = format: physicochemical; conditions: compared with alkyne A
Text: The symmetrical alkyne A, whose formula is reported below, was synthesized by transesterification of the acetylene bis-carboxylic acid bismethyl ester with diethyleneglycol monomethyl ether, in the presence of H2SO4 as catalyst.

Structure (SMILES)	quantity transferred into the water phase ([1]; CDCl3/acetone-d6 (6:1) versus D2O, equal volumes)	solubility in water (Solubility in water)	transfer to the water phase ([1]; after hydrolysis with 0.25 M NaOH in D2O, CDCl3/acetone-d6 6:1)
COCCOCCOC(=O)/C=C\C(=O)OCCOCCOC [B]	about 10 % of the total	higher than that of the alkyne A	–
O=C(O)CCC(=O)O [succinic acid]	–	–	All the succinic acid was transferred to the water phase
